Experimental data from the kinase profiling compilation of Christmann-Franck et al. (2016).

What was measured:
Assay in all cases: radiometric filter-binding kinase assay
[1] = biological target: ABL1 (human) (UniProt P00519); settings: compound 100.0 µM; ATP 5 µM
[2] = biological target: AURKA (human) (UniProt O14965); settings: compound 100.0 µM; ATP 5 µM
[3] = biological target: BRSK2 (human) (UniProt Q8IWQ3); settings: compound 100.0 µM; ATP 50 µM
[4] = biological target: CDK2 CCNA2 (human) (UniProt P20248+P24941); settings: compound 100.0 µM; ATP 20 µM
[5] = biological target: CHEK2 (human) (UniProt O96017); settings: compound 100.0 µM; ATP 20 µM
CHEK2 (human), sequence (O96017 whole entry, looked up): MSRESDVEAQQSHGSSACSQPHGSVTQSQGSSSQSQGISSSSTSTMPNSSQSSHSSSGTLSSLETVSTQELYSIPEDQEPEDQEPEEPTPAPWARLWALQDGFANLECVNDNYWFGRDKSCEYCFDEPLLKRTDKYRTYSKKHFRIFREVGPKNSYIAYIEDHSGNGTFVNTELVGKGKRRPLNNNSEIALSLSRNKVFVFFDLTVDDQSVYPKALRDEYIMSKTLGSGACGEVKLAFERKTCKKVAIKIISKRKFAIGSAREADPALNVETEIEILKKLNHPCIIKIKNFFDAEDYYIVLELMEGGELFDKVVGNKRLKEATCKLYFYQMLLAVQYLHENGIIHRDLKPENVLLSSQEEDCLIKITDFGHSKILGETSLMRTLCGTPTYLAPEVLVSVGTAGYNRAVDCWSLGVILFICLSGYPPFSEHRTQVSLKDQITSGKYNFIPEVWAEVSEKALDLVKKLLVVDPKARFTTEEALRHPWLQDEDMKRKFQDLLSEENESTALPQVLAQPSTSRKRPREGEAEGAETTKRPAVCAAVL

[6] = biological target: CaMK1 (human) (UniProt Q14012); settings: compound 100.0 µM; ATP 50 µM
[7] = biological target: DYRK2 (human) (UniProt Q92630); settings: compound 100.0 µM; ATP 50 µM
[8] = biological target: EEF2K (human) (UniProt O00418); settings: compound 100.0 µM; ATP 5 µM
EEF2K (human), sequence (O00418 whole entry, looked up): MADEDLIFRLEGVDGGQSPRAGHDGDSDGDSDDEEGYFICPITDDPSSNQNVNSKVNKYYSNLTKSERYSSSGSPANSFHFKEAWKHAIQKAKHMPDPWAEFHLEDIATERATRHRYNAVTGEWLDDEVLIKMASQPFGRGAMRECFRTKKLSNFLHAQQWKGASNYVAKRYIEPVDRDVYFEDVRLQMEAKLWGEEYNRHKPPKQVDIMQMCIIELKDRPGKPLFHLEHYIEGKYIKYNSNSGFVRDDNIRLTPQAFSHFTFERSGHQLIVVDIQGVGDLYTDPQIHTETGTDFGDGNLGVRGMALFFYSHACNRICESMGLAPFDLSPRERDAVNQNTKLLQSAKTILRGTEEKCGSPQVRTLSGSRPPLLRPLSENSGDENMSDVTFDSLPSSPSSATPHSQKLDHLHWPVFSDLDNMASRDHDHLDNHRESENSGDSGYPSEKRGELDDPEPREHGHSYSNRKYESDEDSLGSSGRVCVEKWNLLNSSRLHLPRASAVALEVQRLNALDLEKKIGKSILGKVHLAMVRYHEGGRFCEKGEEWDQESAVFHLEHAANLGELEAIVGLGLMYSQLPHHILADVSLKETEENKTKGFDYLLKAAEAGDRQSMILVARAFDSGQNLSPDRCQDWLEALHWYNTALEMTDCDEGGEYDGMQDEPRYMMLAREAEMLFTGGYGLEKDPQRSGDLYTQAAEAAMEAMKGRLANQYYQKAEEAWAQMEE

[9] = biological target: EPHA4 (human) (UniProt P54764); settings: compound 100.0 µM; ATP 50 µM
[10] = biological target: EPHB3 (human) (UniProt P54753); settings: compound 100.0 µM; ATP 20 µM
[11] = biological target: EPHB4 (human) (UniProt P54760); settings: compound 100.0 µM; ATP 5 µM
[12] = biological target: FLT1 (human) (UniProt P17948); settings: compound 100.0 µM; ATP 20 µM
[13] = biological target: HIPK3 (human) (UniProt Q9H422); settings: compound 100.0 µM; ATP 20 µM
[14] = biological target: IKBKE (human) (UniProt Q14164); settings: compound 100.0 µM; ATP 50 µM
[15] = system: LCK (mouse); settings: compound 100.0 µM; ATP 50 µM; accession and sequence are those of the human protein
[16] = biological target: MAPK10 (human) (UniProt P53779); settings: compound 100.0 µM; ATP 20 µM
[17] = biological target: MAPK11 (human) (UniProt Q15759); settings: compound 100.0 µM; ATP 20 µM
[18] = biological target: MAPK13 (human) (UniProt O15264); settings: compound 100.0 µM; ATP 5 µM
[19] = biological target: MAPK9 (human) (UniProt P45984); settings: compound 100.0 µM; ATP 20 µM
[20] = biological target: MELK (human) (UniProt Q14680); settings: compound 100.0 µM; ATP 50 µM
[21] = biological target: MST4 (human) (UniProt Q9P289); settings: compound 100.0 µM; ATP 20 µM
[22] = biological target: NEK2 (human) (UniProt P51955); settings: compound 100.0 µM; ATP 50 µM
[23] = biological target: NUAK1 (human) (UniProt O60285); settings: compound 100.0 µM; ATP 20 µM
NUAK1 (human), sequence (O60285 whole entry, looked up): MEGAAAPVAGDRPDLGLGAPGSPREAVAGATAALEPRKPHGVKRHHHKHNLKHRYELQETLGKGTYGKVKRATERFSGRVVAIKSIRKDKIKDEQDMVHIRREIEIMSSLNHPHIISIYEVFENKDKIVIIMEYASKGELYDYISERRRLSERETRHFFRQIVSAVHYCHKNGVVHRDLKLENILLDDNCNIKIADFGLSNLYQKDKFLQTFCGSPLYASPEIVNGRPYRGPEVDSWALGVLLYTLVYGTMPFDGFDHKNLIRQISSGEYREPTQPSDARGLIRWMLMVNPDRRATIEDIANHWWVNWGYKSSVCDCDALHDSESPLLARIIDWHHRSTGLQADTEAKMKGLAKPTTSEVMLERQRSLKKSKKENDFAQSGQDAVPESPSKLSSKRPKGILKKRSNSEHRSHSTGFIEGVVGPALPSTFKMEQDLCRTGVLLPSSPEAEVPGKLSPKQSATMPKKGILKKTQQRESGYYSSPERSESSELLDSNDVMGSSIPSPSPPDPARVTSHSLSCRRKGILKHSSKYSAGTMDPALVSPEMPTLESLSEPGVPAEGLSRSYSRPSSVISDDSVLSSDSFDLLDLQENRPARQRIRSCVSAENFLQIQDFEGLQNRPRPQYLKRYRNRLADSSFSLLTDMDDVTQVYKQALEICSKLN

[24] = biological target: PAK6 (human) (UniProt Q9NQU5); settings: compound 100.0 µM; ATP 20 µM
[25] = biological target: PAK7 (human) (UniProt Q9P286); settings: compound 100.0 µM; ATP 20 µM
PAK7 (human), sequence (Q9P286 whole entry, looked up): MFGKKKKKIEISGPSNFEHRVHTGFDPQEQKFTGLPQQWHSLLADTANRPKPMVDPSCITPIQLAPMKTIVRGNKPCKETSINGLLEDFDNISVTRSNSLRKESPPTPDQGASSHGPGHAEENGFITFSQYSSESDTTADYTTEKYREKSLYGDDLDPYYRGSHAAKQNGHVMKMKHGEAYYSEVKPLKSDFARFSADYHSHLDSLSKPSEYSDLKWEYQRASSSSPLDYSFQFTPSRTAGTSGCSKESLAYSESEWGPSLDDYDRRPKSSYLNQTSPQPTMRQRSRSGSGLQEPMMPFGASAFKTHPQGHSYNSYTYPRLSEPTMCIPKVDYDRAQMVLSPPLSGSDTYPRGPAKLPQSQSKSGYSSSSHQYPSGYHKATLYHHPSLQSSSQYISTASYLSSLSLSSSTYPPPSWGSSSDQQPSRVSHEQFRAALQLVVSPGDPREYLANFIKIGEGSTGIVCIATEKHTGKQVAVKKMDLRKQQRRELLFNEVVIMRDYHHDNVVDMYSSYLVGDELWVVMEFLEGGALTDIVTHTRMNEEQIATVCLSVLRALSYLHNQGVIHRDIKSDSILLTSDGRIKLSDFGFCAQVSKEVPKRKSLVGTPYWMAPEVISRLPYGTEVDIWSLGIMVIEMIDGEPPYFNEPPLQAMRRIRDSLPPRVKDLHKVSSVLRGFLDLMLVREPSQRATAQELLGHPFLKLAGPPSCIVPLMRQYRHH

[26] = biological target: PHKG1 (human) (UniProt Q16816); settings: compound 100.0 µM; ATP 50 µM
[27] = biological target: PKN2 (human) (UniProt Q16513); settings: compound 100.0 µM; ATP 5 µM
PKN2 (human), sequence (Q16513 whole entry, looked up): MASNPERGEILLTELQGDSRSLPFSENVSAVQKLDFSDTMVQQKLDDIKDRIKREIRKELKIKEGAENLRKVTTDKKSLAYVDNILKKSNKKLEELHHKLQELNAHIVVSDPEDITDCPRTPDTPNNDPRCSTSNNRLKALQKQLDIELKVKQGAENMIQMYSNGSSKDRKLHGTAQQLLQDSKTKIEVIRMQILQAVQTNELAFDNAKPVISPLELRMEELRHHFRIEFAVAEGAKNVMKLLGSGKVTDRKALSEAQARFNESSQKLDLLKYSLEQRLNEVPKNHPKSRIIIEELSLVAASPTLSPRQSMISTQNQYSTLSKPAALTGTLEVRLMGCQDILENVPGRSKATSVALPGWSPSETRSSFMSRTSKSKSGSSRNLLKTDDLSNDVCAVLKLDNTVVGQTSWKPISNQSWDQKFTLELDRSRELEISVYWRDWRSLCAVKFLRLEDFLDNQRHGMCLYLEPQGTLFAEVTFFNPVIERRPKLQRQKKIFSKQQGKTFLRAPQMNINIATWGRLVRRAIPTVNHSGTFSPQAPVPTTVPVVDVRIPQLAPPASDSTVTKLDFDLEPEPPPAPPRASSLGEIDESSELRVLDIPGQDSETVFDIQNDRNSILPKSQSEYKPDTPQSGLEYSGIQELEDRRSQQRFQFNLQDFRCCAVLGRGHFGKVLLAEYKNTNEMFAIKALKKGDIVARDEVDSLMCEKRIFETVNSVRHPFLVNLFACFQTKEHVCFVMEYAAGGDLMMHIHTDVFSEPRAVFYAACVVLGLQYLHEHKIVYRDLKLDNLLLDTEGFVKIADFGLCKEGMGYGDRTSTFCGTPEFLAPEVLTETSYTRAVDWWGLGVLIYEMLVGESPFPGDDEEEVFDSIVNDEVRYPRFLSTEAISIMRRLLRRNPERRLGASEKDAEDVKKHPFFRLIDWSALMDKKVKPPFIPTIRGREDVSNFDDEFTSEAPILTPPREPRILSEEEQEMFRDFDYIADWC

[28] = biological target: PLK1 (human) (UniProt P53350); settings: compound 100.0 µM; ATP 5 µM
[29] = biological target: PRKCA (human) (UniProt P17252); settings: compound 100.0 µM; ATP 20 µM
[30] = biological target: PRKCG (human) (UniProt P05129); settings: compound 100.0 µM; ATP 20 µM
[31] = biological target: RPS6KA3 KD1 KD2 (human) (UniProt P51812); settings: compound 100.0 µM; ATP 50 µM
[32] = system: RPS6KB1 (human), P23443 [T412E]; settings: compound 100.0 µM; ATP 20 µM
[33] = system: SGK1 (human), O00141 [S422D]; settings: compound 100.0 µM; ATP 20 µM
[34] = biological target: SRPK1 (human) (UniProt Q96SB4); settings: compound 100.0 µM; ATP 50 µM
[35] = biological target: STK11 CAB39 STRADA (human) (UniProt Q9Y376+Q7RTN6+Q15831); settings: compound 100.0 µM; ATP 20 µM
[36] = biological target: TAOK1 (human) (UniProt Q7L7X3); settings: compound 100.0 µM; ATP 20 µM
[37] = biological target: TBK1 (human) (UniProt Q9UHD2); settings: compound 100.0 µM; ATP 50 µM
[38] = biological target: TEK (human) (UniProt Q02763); settings: compound 100.0 µM; ATP 20 µM
[39] = biological target: ZAP70 (human) (UniProt P43403); settings: compound 100.0 µM; ATP 5 µM

ABL1 (human), sequence (P00519 whole entry, looked up): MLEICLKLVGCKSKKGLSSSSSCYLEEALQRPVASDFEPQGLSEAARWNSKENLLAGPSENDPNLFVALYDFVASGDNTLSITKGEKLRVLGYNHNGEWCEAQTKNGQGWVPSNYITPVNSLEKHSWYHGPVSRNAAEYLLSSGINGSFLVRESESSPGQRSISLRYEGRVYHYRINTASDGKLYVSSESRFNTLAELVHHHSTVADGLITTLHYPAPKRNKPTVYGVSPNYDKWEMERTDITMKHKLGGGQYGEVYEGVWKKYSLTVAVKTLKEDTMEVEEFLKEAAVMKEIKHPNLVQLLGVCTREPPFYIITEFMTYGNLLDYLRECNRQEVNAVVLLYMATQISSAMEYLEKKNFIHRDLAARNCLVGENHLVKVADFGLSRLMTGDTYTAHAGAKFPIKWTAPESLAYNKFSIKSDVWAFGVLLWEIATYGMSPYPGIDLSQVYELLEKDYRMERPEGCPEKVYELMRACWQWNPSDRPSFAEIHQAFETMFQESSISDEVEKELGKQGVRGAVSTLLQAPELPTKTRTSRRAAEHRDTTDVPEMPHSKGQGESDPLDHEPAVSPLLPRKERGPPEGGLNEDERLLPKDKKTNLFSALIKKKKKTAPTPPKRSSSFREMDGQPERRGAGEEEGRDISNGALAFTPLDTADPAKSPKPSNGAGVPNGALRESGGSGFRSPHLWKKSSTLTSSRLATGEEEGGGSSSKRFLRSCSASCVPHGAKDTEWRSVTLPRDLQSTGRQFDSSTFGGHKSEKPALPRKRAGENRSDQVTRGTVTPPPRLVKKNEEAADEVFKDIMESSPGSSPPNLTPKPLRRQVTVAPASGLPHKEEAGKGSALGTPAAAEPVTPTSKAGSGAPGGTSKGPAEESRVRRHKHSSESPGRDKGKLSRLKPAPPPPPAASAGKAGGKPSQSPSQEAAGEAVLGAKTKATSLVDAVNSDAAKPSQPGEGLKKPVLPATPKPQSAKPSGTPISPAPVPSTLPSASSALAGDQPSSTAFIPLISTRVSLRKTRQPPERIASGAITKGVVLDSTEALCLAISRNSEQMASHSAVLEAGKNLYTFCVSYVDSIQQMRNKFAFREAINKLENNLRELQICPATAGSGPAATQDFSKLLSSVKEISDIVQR

inhibition [1] | inhibition [2] | inhibition [3] | inhibition [4] | inhibition [5] | inhibition [6] | inhibition [7] | inhibition [8] | inhibition [9] | inhibition [10] | inhibition [11] | inhibition [12] | inhibition [13] | inhibition [14] | inhibition [15] | inhibition [16] | inhibition [17] | inhibition [18] | inhibition [19] | inhibition [20] | Structure (SMILES) | also measured
5% | 23% | 34% | 0% | 14% | 0% | 27% | 10% | 22% | 8% | 1% | 38% | 0% | 0% | 0% | 0% | 0% | 0% | 5% | 0% | COc1ccc(NC(=S)Nc2cnc3[nH]cnn3c2=O)cn1 | inhibition [21]: 0%; inhibition [22]: 0%; inhibition [23]: 0%; inhibition [24]: 0%; inhibition [25]: 0%; inhibition [26]: 30%; inhibition [27]: 1%; inhibition [28]: 8%; inhibition [29]: 23%; inhibition [30]: 0%; inhibition [31]: 47%; inhibition [32]: 0%; inhibition [33]: 0%; inhibition [34]: 42%; inhibition [35]: 0%; inhibition [36]: 0%; inhibition [37]: 7%; inhibition [38]: 0%; inhibition [39]: 23%
0% | 16% | 26% | 33% | 0% | 22% | 4% | 18% | 9% | 68% | 19% | 12% | 0% | 0% | 0% | 1% | 0% | 0% | 3% | 0% | CC(C)(C)Nc1c(C2CC2)nc2[nH]cnn12 | inhibition [21]: 0%; inhibition [22]: 0%; inhibition [23]: 24%; inhibition [24]: 0%; inhibition [25]: 18%; inhibition [26]: 6%; inhibition [27]: 17%; inhibition [28]: 0%; inhibition [29]: 0%; inhibition [30]: 9%; inhibition [31]: 13%; inhibition [32]: 0%; inhibition [33]: 0%; inhibition [34]: 0%; inhibition [35]: 0%; inhibition [36]: 0%; inhibition [37]: 1%; inhibition [38]: 9%; inhibition [39]: 1%

Second part, the compound before the results:

Structure (SMILES) | inhibition [1] | inhibition [2] | inhibition [3] | inhibition [4] | inhibition [5] | inhibition [6] | inhibition [7] | inhibition [8] | inhibition [9] | inhibition [10] | inhibition [11] | inhibition [12] | inhibition [13] | inhibition [14] | inhibition [15] | inhibition [16] | inhibition [17] | inhibition [18] | inhibition [19] | inhibition [20] | also measured
CC1CN(c2nc3ccccn3c(=O)c2N)CC(C)O1 (stereo not given) | 2% | 2% | 32% | 8% | 0% | 35% | 40% | 35% | 16% | 0% | 12% | 54% | 0% | 0% | 2% | 9% | 0% | 0% | 6% | 7% | inhibition [21]: 2%; inhibition [22]: 0%; inhibition [23]: 3%; inhibition [24]: 4%; inhibition [25]: 0%; inhibition [26]: 3%; inhibition [27]: 0%; inhibition [28]: 0%; inhibition [29]: 15%; inhibition [30]: 0%; inhibition [31]: 84%; inhibition [32]: 0%; inhibition [33]: 0%; inhibition [34]: 74%; inhibition [35]: 0%; inhibition [36]: 0%; inhibition [37]: 0%; inhibition [38]: 5%; inhibition [39]: 38%
CC(=O)Nc1nc2cnc(-c3ccccc3)cn2n1 | 48% | 13% | 20% | 34% | 25% | 17% | 30% | 13% | 19% | 32% | 11% | 69% | 0% | 23% | 29% | 11% | 22% | 1% | 1% | 17% | inhibition [21]: 16%; inhibition [22]: 25%; inhibition [23]: 33%; inhibition [24]: 18%; inhibition [25]: 20%; inhibition [26]: 68%; inhibition [27]: 13%; inhibition [28]: 4%; inhibition [29]: 0%; inhibition [30]: 2%; inhibition [31]: 9%; inhibition [32]: 5%; inhibition [33]: 16%; inhibition [34]: 25%; inhibition [35]: 0%; inhibition [36]: 0%; inhibition [37]: 31%; inhibition [38]: 11%; inhibition [39]: 16%
Nc1nc2cnc(-c3ccccc3)cn2n1 | 72% | 52% | 28% | 54% | 81% | 41% | 63% | 36% | 42% | 54% | 56% | 82% | 16% | 39% | 75% | 47% | 34% | 18% | 26% | 13% | inhibition [21]: 41%; inhibition [22]: 77%; inhibition [23]: 73%; inhibition [24]: 36%; inhibition [25]: 79%; inhibition [26]: 83%; inhibition [27]: 44%; inhibition [28]: 18%; inhibition [29]: 2%; inhibition [30]: 24%; inhibition [31]: 51%; inhibition [32]: 9%; inhibition [33]: 34%; inhibition [34]: 41%; inhibition [35]: 2%; inhibition [36]: 37%; inhibition [37]: 72%; inhibition [38]: 39%; inhibition [39]: 0%
